Data on one compound can be found in patent publication US20240025886A1, “INHIBITORS OF IGF2BP1-RNA BINDING” (YISSUM RESEARCH DEVELOPMENT COMPANY OF THE HEBREW …, priority 2020, published 2024).

For data set [1], the target named is La binding to Bcl2 RNA (Homo sapiens, UniProt P05455). Briefly: FP counter assay, La binding to Bcl2 RNA.
In data set [2] the target is G9a (Homo sapiens, UniProt Q96KQ7). Briefly: G9a fluorescence polarization enzymatic activity assay. Type of data set: biochemical. The settings on record: increasing concentrations. Here is the method: For the small molecule screen, compounds were obtained from the collection maintained at the Grand Israel National Center for Personalized Medicine, consisting of molecules purchased from commercial vendors. Labelled RNA (10 nM) was incubated with recombinant Igf2bp1 protein (400 nM) in FAM-RNA buffer (10 mM Tris pH 8.0, 75 mM KCl, 0.5 mM EDTA, 1 mM DTT, 0.0188 U/μL RNAsin, 0.0005 μg/mL heparin, 0.0001 μg/μL tRNA, 0.01% Triton X-100, 3 mM MgCl2, 0.05% IGEPAL) at room temperature for 15 min. […] of this reaction mix was aliquoted with GNF WDII (USA) into wells of 1536 well plates, with a final concentration of […] compound or DMSO. The plates were spun down and read in a BMG Pherastar FS (Germany) plate reader plate reader, in FP mode with a 485/520/520 polarization filter, calibrated to 35 mP for free fluorescein with similar total intensity as experimental samples. The G9a FP assay was based on using an S-adenosylhomocysteine (SAH)-FITC probe and antibody to SAH to produce a high FP signal when the antibody binds to SAH-FITC. Unlabeled SAH produced by incubation of G9a enzyme with S-adenosylmethionine (SAM) and peptide substrate competes for the antibody and results in a low FP signal. 100% activity means that G9a is fully active and therefore a low FP signal is observed (SAH is produced).
Sequence of G9a (Q96KQ7 whole entry, species assumed): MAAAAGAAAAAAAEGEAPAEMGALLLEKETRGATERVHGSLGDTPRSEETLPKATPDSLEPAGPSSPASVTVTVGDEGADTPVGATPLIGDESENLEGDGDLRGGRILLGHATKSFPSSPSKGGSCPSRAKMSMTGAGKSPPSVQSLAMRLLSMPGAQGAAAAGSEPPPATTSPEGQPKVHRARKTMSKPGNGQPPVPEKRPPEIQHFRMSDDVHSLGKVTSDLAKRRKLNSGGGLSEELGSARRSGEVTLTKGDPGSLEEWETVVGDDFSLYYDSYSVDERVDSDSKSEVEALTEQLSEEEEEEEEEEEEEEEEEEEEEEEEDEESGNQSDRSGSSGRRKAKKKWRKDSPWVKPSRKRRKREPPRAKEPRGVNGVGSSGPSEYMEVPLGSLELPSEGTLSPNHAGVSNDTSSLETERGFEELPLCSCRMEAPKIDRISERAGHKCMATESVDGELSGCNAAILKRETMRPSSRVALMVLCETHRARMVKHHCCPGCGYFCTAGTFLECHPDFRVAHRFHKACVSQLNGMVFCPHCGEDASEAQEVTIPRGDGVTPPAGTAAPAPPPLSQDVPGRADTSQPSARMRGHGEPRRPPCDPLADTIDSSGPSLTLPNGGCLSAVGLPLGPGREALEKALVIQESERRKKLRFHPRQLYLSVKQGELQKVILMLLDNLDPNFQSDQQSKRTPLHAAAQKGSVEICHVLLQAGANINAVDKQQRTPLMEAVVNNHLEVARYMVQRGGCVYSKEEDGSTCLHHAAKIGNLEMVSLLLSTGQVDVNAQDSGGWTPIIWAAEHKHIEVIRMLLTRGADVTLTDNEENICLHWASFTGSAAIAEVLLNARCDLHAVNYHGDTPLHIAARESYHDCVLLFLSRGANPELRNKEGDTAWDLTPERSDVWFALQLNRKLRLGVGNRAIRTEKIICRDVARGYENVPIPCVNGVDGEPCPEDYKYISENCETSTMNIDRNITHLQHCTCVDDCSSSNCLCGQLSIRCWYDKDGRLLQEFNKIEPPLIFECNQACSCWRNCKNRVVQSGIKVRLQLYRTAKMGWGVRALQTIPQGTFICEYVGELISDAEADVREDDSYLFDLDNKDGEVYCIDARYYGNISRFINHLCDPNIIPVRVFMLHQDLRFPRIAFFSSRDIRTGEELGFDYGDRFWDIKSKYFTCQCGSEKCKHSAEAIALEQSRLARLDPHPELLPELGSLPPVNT
A general note: In fluorescence polarisation assays a small probe gives low polarisation when free and higher when bound to something large.

Data set [3] deals with T1, Igf2bp1 (Homo sapiens, UniProt Q9NZI8).
T1 construct: Recombinant full-length Igf2bp1 protein; made in house; host or cells: E. coli BL21(DE3)
T1 sequence (Q9NZI8 whole entry): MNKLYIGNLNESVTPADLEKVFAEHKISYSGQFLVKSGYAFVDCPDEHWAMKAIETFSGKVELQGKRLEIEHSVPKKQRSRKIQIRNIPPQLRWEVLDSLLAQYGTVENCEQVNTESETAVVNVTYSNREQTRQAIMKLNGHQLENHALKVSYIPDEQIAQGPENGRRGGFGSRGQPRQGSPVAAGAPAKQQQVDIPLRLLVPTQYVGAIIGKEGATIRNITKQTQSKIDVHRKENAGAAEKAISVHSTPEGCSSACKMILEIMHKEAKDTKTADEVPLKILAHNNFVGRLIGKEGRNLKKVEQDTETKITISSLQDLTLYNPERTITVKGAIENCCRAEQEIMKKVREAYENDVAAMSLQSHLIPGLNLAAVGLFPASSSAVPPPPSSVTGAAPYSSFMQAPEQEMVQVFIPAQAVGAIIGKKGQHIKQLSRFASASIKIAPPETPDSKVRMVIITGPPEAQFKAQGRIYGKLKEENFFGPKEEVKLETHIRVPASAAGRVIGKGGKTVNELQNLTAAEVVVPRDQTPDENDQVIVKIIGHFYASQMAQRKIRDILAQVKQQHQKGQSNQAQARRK
Briefly: Microscale thermophoresis (MST) binding to full-length Igf2bp1. The settings on record: full-length protein, unit printed μM. The method, then:
(§1) Recombinant full-length Igf2bp1 protein was labelled with RED-tris-NTA dye using a Monolith NT His-Tag Labelling Kit (NanoTemper) while RRM12, KH12 and KH34 di-domain peptides were labelled using the Protein Labeling Kit RED NHS 2nd generation (NanoTemper). Labelled proteins were spun at 15,000 g for 5 min to eliminate aggregates. All samples were 2× labelled protein mix of Igf2bp1 (200 nM) in PBST and were combined (1:1) with serial dilutions of compound or Kras6 RNA in binding buffer (10 mMTris pH=7.5, 100 mM NaCl, 0.1 mM EDTA, 0.06% IPEGAL, 0.02 μg/μL tRNA, 2 mM DTT, 0.1 μg/μL heparin) in final volume of 20 μL, room temperature for 15 min. Samples were then loaded into standard capillaries (NanoTemper) and read in the Monolith NT.115 scanner (NanoTemper) using the red filter with reading conditions of 95% LED power and 40% MST power, 5 sec fluorescence before, 30 sec MST on, 5 sec fluorescence after and 25 sec delay between samples. Results were analyzed using the MO Control software (NanoTemper) for curve fitting to KD.
In general terms: MST reads how a fluorescent partner responds to local heating, with and without ligand.

Data set [4] concerns the target T2, Igf2bp1 RRM12 di-domain (Homo sapiens, UniProt Q9NZI8).
T2 construct: RRM12 (M1-P188); 6xHis (N, cleaved yes); made in house; host or cells: E. coli BL21(DE3)
Put plainly: MST binding to Igf2bp1 di-domain RRM12. Here is the method:
as §1

The test system of data set [5] is LKR-M cells transfected with full length human Igf2bp1-GFP. Briefly: Wound healing assay, LKR-M cells expressing human Igf2bp1-GFP. The data set is classed as cell-based, mouse. Also on record: dose or concentration left out as unconfirmed. The settings on record: 7773 vs DMSO. The method, then:
(§2) Cells were seeded in 96 IncuCyte® ImageLock plates (20×10^3 cells per well) for 24 hours, to a near confluency of 95%, before the addition of increasing concentrations of compound. After a further 24 hours, wells were scratched using the IncuCyte® 96-well WoundMaker Tool, and the cells cultured for an additional 48 hours using the IncuCyte® S3 Live-Cell Analysis System (Essen BioScience). The plate was imaged at increments of 120 minutes for a period of 48 hours, and then analyzed for relative wound healing.

Data set [6] concerns LKR-M cells transfected with GFP alone. Briefly: Wound healing assay, LKR-M cells expressing GFP alone. Type of data set: cell-based, mouse. The settings on record: 20 mM 7773 vs DMSO. Here is the method:
as §2

Data set [7] deals with H1299 cells. Briefly: Real-time PCR of steady state RNA levels in H1299 cells. The data set is classed as cell-based, human. Here is the method:
(§3) Primers were calibrated for several Igf2bp1 RNA targets (Table 3): […]
(§4) Cells were grown for 12 hours in 12 well plates prior to incubation with the compound at different concentrations for an additional 12 or 24 hours. Total RNA was then extracted using EZ-RNA total RNA isolation kit (Biological Industries) and cDNA prepared from the RNA using the First Strand cDNA Synthesis kit (Quanta bio). Real time PCR was performed with Fast SYBR Green Master Mix (Thermo Fisher Scientific), and cDNA expression analyzed with the Bio-Rad CFX Manager 3.1.
On the technique in general: Quantitative PCR measures a nucleic acid by following its amplification.

Data set [8] relates to cMyc mRNA. Put plainly: cMyc mRNA levels in different cell lines. Type of data set: cell-based. Here is the method:
as §3, §4

Data set [9] deals with H1299 cells. Put plainly: Wound healing (cell migration) assay, H1299 cells. Type of data set: cell-based, human. The method, then: as §2
Data set [10] concerns ES2 cells. Briefly: Wound healing (cell migration) assay, ES2 cells. Type of data set: cell-based, human. The method, then:
as §2

The subject of data set [11] is HEK293 cells. Briefly: Wound healing (cell migration) assay, HEK293 cells. Type of data set: cell-based, human. The method, then:
as §2

In data set [12] the test system is H1299 cells. Briefly: Cell proliferation assay (Incucyte), H1299 cells. The data set is classed as cell-based, human. Conditions: H1299, up to 20 mM 7773. Here is the method:
(§5) ES2, H1299 and HEK293 cells were seeded in a 96 well plate (5×10^3 cells per well) for 24 hours before adding the compound at increasing concentrations. After an additional 24 hours, the plate was incubated in an IncuCyte® S3 Live-Cell Analysis System (Essen BioScience). The wells were filmed for 72 hours, and then analyzed for proliferation rate Using IncuCyte® S3 Live-Cell Analysis System (Essen BioScience)

Data set [13] concerns ES2 cells. Put plainly: Cell proliferation assay (Incucyte), ES2 cells. The data set is classed as cell-based, human. On the set-up: dose or concentration left out as unconfirmed. The settings on record: ES2, up. The method, then:
as §5

Data set [14] concerns HEK293 cells. Put plainly: Cell proliferation assay (Incucyte), HEK293 cells. The data set is classed as cell-based, human. On the set-up: dose or concentration left out as unconfirmed. The settings on record: HEK293, 7773. Here is the method: as §5
The subject of data set [15] is H1299 cells. Briefly: Cytotoxicity and cell viability, H1299 cells. Type of data set: cell-based, human. On the set-up: Cell viability: dose or concentration left out as unconfirmed.

SMILES strings stand for the structures. “Also recorded” adds a separate entry of the source. Where only a bound is given, the exact number is not on record here.

Sequence of La binding to Bcl2 RNA (P05455 whole entry): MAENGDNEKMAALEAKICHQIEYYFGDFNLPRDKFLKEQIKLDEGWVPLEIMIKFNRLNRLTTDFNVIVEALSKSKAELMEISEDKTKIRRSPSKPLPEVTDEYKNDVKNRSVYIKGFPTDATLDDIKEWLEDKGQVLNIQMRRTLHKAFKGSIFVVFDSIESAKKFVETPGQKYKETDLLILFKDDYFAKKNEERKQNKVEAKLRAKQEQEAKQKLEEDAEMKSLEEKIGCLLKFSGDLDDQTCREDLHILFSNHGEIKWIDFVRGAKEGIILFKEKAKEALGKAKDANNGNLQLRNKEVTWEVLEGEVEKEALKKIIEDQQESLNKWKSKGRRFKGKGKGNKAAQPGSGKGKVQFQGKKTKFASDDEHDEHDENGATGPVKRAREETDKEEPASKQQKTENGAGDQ
T2 sequence (Q9NZI8 1-188): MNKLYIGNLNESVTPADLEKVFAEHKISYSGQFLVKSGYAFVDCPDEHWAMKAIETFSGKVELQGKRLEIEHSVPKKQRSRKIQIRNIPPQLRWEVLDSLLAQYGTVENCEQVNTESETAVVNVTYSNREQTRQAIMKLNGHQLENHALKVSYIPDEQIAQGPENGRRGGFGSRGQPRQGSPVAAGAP

For `O=C(c1ccc(Cn2cnnn2)cc1)N1CCCC(Nc2ccc3c(c2)OCO3)C1` (stereo not shown) [Compound 7773], in data set [1] (FP), the “Effect on control RBP (La) binding to its target (Bcl2 RNA)” value is recorded as “almost no effect”. Moreover, in data set [1] (FP control, n=3, read-out: IC50 for inhibition of La binding to Bcl2 RNA), the IC50 (commonly the concentration that gives 50% inhibition) is over 100 µM. For the same compound, the “Inhibition of G9a enzymatic activity” value in data set [2] is “almost no effect; also recorded: does not inhibit”. In addition, the values for the Kd in data set [3] and in data set [4] were 17 µM and 1.5 µM, respectively. In addition, the “Inhibition of Igf2bp1-GFP enhanced wound healing” value in data set [5] is listed as “significantly inhibited”. Besides, in [6], the “Effect on migration of cells expressing GFP alone” value was “unaffected”. In addition, the “Steady state level of Kras mRNA” value in [7] (H1299, 20 mM 7773, 12 hours) is on record as “already reduced”. Besides, in [7] (H1299, 20 mM 7773, 24 hours), the “Steady state levels of CD44, Kras, cMyc and SRF RNA” value was “significantly reduced”. Besides, the “Steady state levels of control RNAs (not targets of Igf2bp1)” value in data set [7] (H1299, 20 mM 7773, 24 hours) is “not significantly affected”. The “Reduction of cMyc mRNA levels” value in data set [8] is listed as 50-60%. For the same compound, the “Inhibition of wound healing” value in [9] (H1299, 5 mM 7773) was “discernible inhibition”; in data set [9] (H1299, 20 mM 7773), “strongly inhibited”; in [10] (ES2, 5 mM 7773), “discernible inhibition”; in data set [10] (ES2, 20 mM 7773) it was “strongly inhibited”; in data set [11] (HEK293, 5 mM 7773), “discernible inhibition”; in [11] (HEK293, 20 mM 7773) it was “strongly inhibited”. Moreover, the Cell proliferation entry in data set [12], in data set [13] and in data set [14] was “remarkably unaffected” in each case. The Cytotoxicity result in data set [15] (H1299, 20, 10 or 5 mM 7773, 48 hours) is “virtually no effect”. Also, the Cell viability result in [15] (H1299, 7773, 48 hours) is recorded as “does not affect”.
